Laboratory results published in patent US8192962B2, “Processes for detecting toxic substances” (Daikin Industries, Ltd., priority 2001, dated 2012).

Tested on: Genes belonging to other category
Assay: DNA chip mRNA expression in yeast, genes belonging to other category (Table 9)
Format: cell-based, Saccharomyces cerevisiae S288C
Procedure, shortened: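 Ratios compare mRNA levels in stressed and control S. cerevisiae. Each toxicant was applied for two hours to log-phase cultures at 25° C. at a sub-lethal, growth-inhibiting level; fluorescent cDNA (Cy3- or Cy5-dUTP) was hybridized to a genome-wide yeast chip for over 12 h at 65° C.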

Oc1cc(Cl)c(Cl)cc1Cl [(6), 2,4,5-trichlorophenol]
The level of expressed mRNA in the presence of chemical substance/The level of expressed mRNA in the absence of chemical substance (yeast gene YJL210W): 0.6 | The level of expressed mRNA in the presence of chemical substance/The level of expressed mRNA in the absence of chemical substance (yeast gene YJR004C): 1.2 | The level of expressed mRNA in the presence of chemical substance/The level of expressed mRNA in the absence of chemical substance (yeast gene YJR050W): 1.4 | The level of expressed mRNA in the presence of chemical substance/The level of expressed mRNA in the absence of chemical substance (yeast gene YJR086W): 1.9 | The level of expressed mRNA in the presence of chemical substance/The level of expressed mRNA in the absence of chemical substance (yeast gene YJR091C): 0.8 | The level of expressed mRNA in the presence of chemical substance/The level of expressed mRNA in the absence of chemical substance (yeast gene YJR110W): 0.9 | The level of expressed mRNA in the presence of chemical substance/The level of expressed mRNA in the absence of chemical substance (yeast gene YJR117W): 1.3 | The level of expressed mRNA in the presence of chemical substance/The level of expressed mRNA in the absence of chemical substance (yeast gene YJR119C): 1.4 | The level of expressed mRNA in the presence of chemical substance/The level of expressed mRNA in the absence of chemical substance (yeast gene YJR145C): 0.4 | The level of expressed mRNA in the presence of chemical substance/The level of expressed mRNA in the absence of chemical substance (yeast gene YKL008C): 3.8 | The level of expressed mRNA in the presence of chemical substance/The level of expressed mRNA in the absence of chemical substance (yeast gene YKL013C): 1.9 | The level of expressed mRNA in the presence of chemical substance/The level of expressed mRNA in the absence of chemical substance (yeast gene YKL025C): 0.9 | The level of expressed mRNA in the presence of chemical substance/The level of expressed mRNA in the absence of chemical substance (yeast gene YKL039W): 4.9 | The level of expressed mRNA in the presence of chemical substance/The level of expressed mRNA in the absence of chemical substance (yeast gene YKL041W): 2.2 | The level of expressed mRNA in the presence of chemical substance/The level of expressed mRNA in the absence of chemical substance (yeast gene YKL079W): 0.8 | The level of expressed mRNA in the presence of chemical substance/The level of expressed mRNA in the absence of chemical substance (yeast gene YKL096W): 0.6 | The level of expressed mRNA in the presence of chemical substance/The level of expressed mRNA in the absence of chemical substance (yeast gene YKL139W): 3.5 | The level of expressed mRNA in the presence of chemical substance/The level of expressed mRNA in the absence of chemical substance (yeast gene YKL165C): 0.6 | The level of expressed mRNA in the presence of chemical substance/The level of expressed mRNA in the absence of chemical substance (yeast gene YKL193C): 0.9 | The level of expressed mRNA in the presence of chemical substance/The level of expressed mRNA in the absence of chemical substance (yeast gene YKL196C): 0.9 | The level of expressed mRNA in the presence of chemical substance/The level of expressed mRNA in the absence of chemical substance (yeast gene YKR014C): 2.1 | The level of expressed mRNA in the presence of chemical substance/The level of expressed mRNA in the absence of chemical substance (yeast gene YKR098C): 1.8 | The level of expressed mRNA in the presence of chemical substance/The level of expressed mRNA in the absence of chemical substance (yeast gene YLR120C): 1.9 | The level of expressed mRNA in the presence of chemical substance/The level of expressed mRNA in the absence of chemical substance (yeast gene YLR136C): 1.7 | The level of expressed mRNA in the presence of chemical substance/The level of expressed mRNA in the absence of chemical substance (yeast gene YLR144C): 0.9 | The level of expressed mRNA in the presence of chemical substance/The level of expressed mRNA in the absence of chemical substance (yeast gene YLR178C): 4.2 | The level of expressed mRNA in the presence of chemical substance/The level of expressed mRNA in the absence of chemical substance (yeast gene YLR206W): 0.5 | The level of expressed mRNA in the presence of chemical substance/The level of expressed mRNA in the absence of chemical substance (yeast gene YLR250W): 1.1 | The level of expressed mRNA in the presence of chemical substance/The level of expressed mRNA in the absence of chemical substance (yeast gene YLR266C): 1.0 | The level of expressed mRNA in the presence of chemical substance/The level of expressed mRNA in the absence of chemical substance (yeast gene YLR327C): 5.1 | The level of expressed mRNA in the presence of chemical substance/The level of expressed mRNA in the absence of chemical substance (yeast gene YLR356W): 3.4 | The level of expressed mRNA in the presence of chemical substance/The level of expressed mRNA in the absence of chemical substance (yeast gene YLR360W): 1.4 | The level of expressed mRNA in the presence of chemical substance/The level of expressed mRNA in the absence of chemical substance (yeast gene YLR362W): 0.8 | The level of expressed mRNA in the presence of chemical substance/The level of expressed mRNA in the absence of chemical substance (yeast gene YLR389C): 0.2 | The level of expressed mRNA in the presence of chemical substance/The level of expressed mRNA in the absence of chemical substance (yeast gene YLR391W): 1.5 | The level of expressed mRNA in the presence of chemical substance/The level of expressed mRNA in the absence of chemical substance (yeast gene YLR429W): 0.8 | The level of expressed mRNA in the presence of chemical substance/The level of expressed mRNA in the absence of chemical substance (yeast gene YMR004W): 0.5 | The level of expressed mRNA in the presence of chemical substance/The level of expressed mRNA in the absence of chemical substance (yeast gene YMR094W): 0.5 | The level of expressed mRNA in the presence of chemical substance/The level of expressed mRNA in the absence of chemical substance (yeast gene YMR101C): 0.4 | The level of expressed mRNA in the presence of chemical substance/The level of expressed mRNA in the absence of chemical substance (yeast gene YMR104C): 1.9 | The level of expressed mRNA in the presence of chemical substance/The level of expressed mRNA in the absence of chemical substance (yeast gene YMR219W): 0.8 | The level of expressed mRNA in the presence of chemical substance/The level of expressed mRNA in the absence of chemical substance (yeast gene YMR226C): 2.6 | The level of expressed mRNA in the presence of chemical substance/The level of expressed mRNA in the absence of chemical substance (yeast gene YMR275C): 1.4 | The level of expressed mRNA in the presence of chemical substance/The level of expressed mRNA in the absence of chemical substance (yeast gene YMR276W): 0.8 | The level of expressed mRNA in the presence of chemical substance/The level of expressed mRNA in the absence of chemical substance (yeast gene YMR297W): 1.8 | The level of expressed mRNA in the presence of chemical substance/The level of expressed mRNA in the absence of chemical substance (yeast gene YMR314W): 1.3 | The level of expressed mRNA in the presence of chemical substance/The level of expressed mRNA in the absence of chemical substance (yeast gene YNL006W): 1.0 | The level of expressed mRNA in the presence of chemical substance/The level of expressed mRNA in the absence of chemical substance (yeast gene YNL007C): 0.6 | The level of expressed mRNA in the presence of chemical substance/The level of expressed mRNA in the absence of chemical substance (yeast gene YNL069C): 0.4 | The level of expressed mRNA in the presence of chemical substance/The level of expressed mRNA in the absence of chemical substance (yeast gene YNL093W): 1.6 | The level of expressed mRNA in the presence of chemical substance/The level of expressed mRNA in the absence of chemical substance (yeast gene YNL333W): 1.5 | The level of expressed mRNA in the presence of chemical substance/The level of expressed mRNA in the absence of chemical substance (yeast gene YNR010W): 1.3 | The level of expressed mRNA in the presence of chemical substance/The level of expressed mRNA in the absence of chemical substance (yeast gene YNR069C): 1.7 | The level of expressed mRNA in the presence of chemical substance/The level of expressed mRNA in the absence of chemical substance (yeast gene YOL013C): 1.1 | The level of expressed mRNA in the presence of chemical substance/The level of expressed mRNA in the absence of chemical substance (yeast gene YOL039W): 0.4 | The level of expressed mRNA in the presence of chemical substance/The level of expressed mRNA in the absence of chemical substance (yeast gene YOL120C): 0.3 | The level of expressed mRNA in the presence of chemical substance/The level of expressed mRNA in the absence of chemical substance (yeast gene YOL164W): 1.2 | The level of expressed mRNA in the presence of chemical substance/The level of expressed mRNA in the absence of chemical substance (yeast gene YOR023C): 1.8 | The level of expressed mRNA in the presence of chemical substance/The level of expressed mRNA in the absence of chemical substance (yeast gene YOR036W): 1.7 | The level of expressed mRNA in the presence of chemical substance/The level of expressed mRNA in the absence of chemical substance (yeast gene YOR117W): 1.1 | The level of expressed mRNA in the presence of chemical substance/The level of expressed mRNA in the absence of chemical substance (yeast gene YOR124C): 0.9 | The level of expressed mRNA in the presence of chemical substance/The level of expressed mRNA in the absence of chemical substance (yeast gene YOR132W): 1.6 | The level of expressed mRNA in the presence of chemical substance/The level of expressed mRNA in the absence of chemical substance (yeast gene YOR133W): 0.9 | The level of expressed mRNA in the presence of chemical substance/The level of expressed mRNA in the absence of chemical substance (yeast gene YOR134W): 1.4 | The level of expressed mRNA in the presence of chemical substance/The level of expressed mRNA in the absence of chemical substance (yeast gene YOR157C): 1.2 | The level of expressed mRNA in the presence of chemical substance/The level of expressed mRNA in the absence of chemical substance (yeast gene YOR181W): 0.9 | The level of expressed mRNA in the presence of chemical substance/The level of expressed mRNA in the absence of chemical substance (yeast gene YOR185C): 3.0 | The level of expressed mRNA in the presence of chemical substance/The level of expressed mRNA in the absence of chemical substance (yeast gene YOR198C): 0.9 | The level of expressed mRNA in the presence of chemical substance/The level of expressed mRNA in the absence of chemical substance (yeast gene YOR259C): 0.8 | The level of expressed mRNA in the presence of chemical substance/The level of expressed mRNA in the absence of chemical substance (yeast gene YOR261C): 1.4 | The level of expressed mRNA in the presence of chemical substance/The level of expressed mRNA in the absence of chemical substance (yeast gene YOR288C): 1.0 | The level of expressed mRNA in the presence of chemical substance/The level of expressed mRNA in the absence of chemical substance (yeast gene YOR327C): 1.4 | The level of expressed mRNA in the presence of chemical substance/The level of expressed mRNA in the absence of chemical substance (yeast gene YOR355W): 1.6 | The level of expressed mRNA in the presence of chemical substance/The level of expressed mRNA in the absence of chemical substance (yeast gene YOR362C): 1.4 | The level of expressed mRNA in the presence of chemical substance/The level of expressed mRNA in the absence of chemical substance (yeast gene YOR383C): 6.8 | The level of expressed mRNA in the presence of chemical substance/The level of expressed mRNA in the absence of chemical substance (yeast gene YPL089C): 0.8 | The level of expressed mRNA in the presence of chemical substance/The level of expressed mRNA in the absence of chemical substance (yeast gene YPL109C): 1.2 | The level of expressed mRNA in the presence of chemical substance/The level of expressed mRNA in the absence of chemical substance (yeast gene YPL149W): 0.9 | The level of expressed mRNA in the presence of chemical substance/The level of expressed mRNA in the absence of chemical substance (yeast gene YPL154C): 3.5 | The level of expressed mRNA in the presence of chemical substance/The level of expressed mRNA in the absence of chemical substance (yeast gene YPR028W): 1.4 | The level of expressed mRNA in the presence of chemical substance/The level of expressed mRNA in the absence of chemical substance (yeast gene YPR080W): 1.4 | The level of expressed mRNA in the presence of chemical substance/The level of expressed mRNA in the absence of chemical substance (yeast gene YPR103W): 1.2 | The level of expressed mRNA in the presence of chemical substance/The level of expressed mRNA in the absence of chemical substance (yeast gene YPR108W): 1.5 | The level of expressed mRNA in the presence of chemical substance/The level of expressed mRNA in the absence of chemical substance (yeast gene YPR168W): 0.4
